The conditions of experiment [1]: G-protein-biased agonists; cited from earlier work. The source says:
The therapeutic potential of biased and unbiased agonists for the apelinR remains an area of active investigation, particularly regarding their effects on BP regulation. […] In contrast, the two non peptidic apelinR agonists, BMS-98622 ...

A further experiment concerns the target T1, human apelinR (Homo sapiens, UniProt P35414).
T1 construct: expressed in transfected cells; crude membrane preparations
T1 sequence (P35414 1-380): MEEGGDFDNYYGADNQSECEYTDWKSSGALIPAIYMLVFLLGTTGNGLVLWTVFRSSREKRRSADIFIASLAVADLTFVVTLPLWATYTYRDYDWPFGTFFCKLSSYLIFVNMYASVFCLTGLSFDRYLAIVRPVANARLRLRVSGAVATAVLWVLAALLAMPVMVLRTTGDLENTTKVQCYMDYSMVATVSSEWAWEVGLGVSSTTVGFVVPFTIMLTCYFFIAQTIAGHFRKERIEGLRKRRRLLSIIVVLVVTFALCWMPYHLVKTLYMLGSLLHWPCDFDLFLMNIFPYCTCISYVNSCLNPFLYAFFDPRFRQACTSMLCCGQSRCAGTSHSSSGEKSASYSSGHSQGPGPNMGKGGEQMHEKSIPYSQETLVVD
As to the kind of experiment: ApelinR radioligand binding experiment (competition with [125I]-(Nle11,Tyr13) apelin-13). The settings on record: Fig. 1; membranes of CHO cells stably expressing hApelinR; 0.2 nM [125I]-(Nle11,Tyr13) apelin-13; 3 h at 20 °C; n = 4 to 6 independent experiments in duplicate; read-out: Binding affinity IC50 ± SEM.

Experiment [2] concerns wild-type male mice (C57BL/6). As to the kind of experiment: Blood pressure lowering assay in anesthetized mice. Type of experiment: in vivo, mouse. The conditions noted are these: 0.5 μmol kg^−1 infusion during 5 min via jugular vein; anesthetized wild-type male C57BL/6 mice; compared to vehicle control. The protocol:
The metabolically stable apelin analogues from each isoform, CbzPEG6–NMeLeu17A2 and NMeLeu13A2 along with the small molecule agonist, BMS-986224 (0.5 μmol kg^−1 infusion during 5 min for each compound), were tested for their BP lowering activity in anesthetized wild-type male mice (C57BL/6, 24–30 g). […] In contrast, the hypotensive effect of CbzPEG6–NMeLeu17A2 was observed immediately after infusion. This analogue reduced mean arterial pressure (MAP) by approximately 50% during the experiment, with the effect sustained for more than 30 minutes post-administration. Apelin can act on the endothelial layer of vasculature, leading to systemic changes in blood pressure by increasing the synthesis of nitric oxide (NO).[5] The effect of CbzPEG6–NMeLeu17A2 on […], which decreases the […] resistance by increasing eNOS activation and NO production through the activation of the PI3K/Akt signalling pathway on endothelial cells like other apelin analogues we tested in the previous studies.[5,11]
The blood pressure measurement and apelin injection method has been described in our previous research.[43] During the blood pressure testing, mice aged 12–14 weeks were anesthetized with 1.5% isoflurane in oxygen and monitored throughout the experiment. The blood pressure was measured using a PV loop catheter (model 1.2F, Transonic) […] into the left carotid artery. The monitor system (LabScribe 2.0. Scisense) recorded aortic blood pressure and heart rate. After a 20-minute baseline measurement, CbzPEG6–NMeLeu17A2, NMeLeu13A2, RI13, RI13A2, RI17, RI17A2, and BMS-986224 (0.5 μmol […] body weight) were diluted in saline and consistently infused for 5 min via the right jugular vein. For BMS-986224, 0.1% DMSO was added to saline to help with dilution. Blood pressure was continuously recorded for 60 minutes post-infusion.
3. Effects of APJ agonists on blood pressure
Figure S3. Different effects of apelin analog and receptor agonist on blood pressure and ischemia-reperfusion injury. A) the effect of CbzPEG6–NMeLeu17A2 (n=3) on mean arterial blood pressure (MAP), B) the effect of apelin 13 analog, NMeLeu13A2, on MAP (n=4). The effect of apelin 13 analog reverse enantiomers, C) RI13 (n=4) and D) RI13A2 (n=4), on MAP. The effect of apelin 17 reverse enantiomers, E) RI17 (n=4) and F) RI17A2 (n=4) on MAP. G) The effect of small molecule apelin receptor agonist BMS-986224 on blood pressure (n=4). The MAP recording between 50 and 60 minutes has been averaged and compared with their controls (placebo (n=4)). The vehicle for BMS-986224 is 0.1% DMSO (n=3). The arrow indicates the time when analogs were introduced. Values mean ±SEM and ****P<0.0001, compared to the control group.
(1 picture or pasted object on this page, not shown here)

Experiment [3] relates to isolated mouse heart (ischemia–reperfusion injury). As to the kind of experiment: Ex vivo Langendorff heart perfusion with ischemia–reperfusion. The conditions noted are these: 1 μM in perfusion buffer for first 10 min of reperfusion after 30 min ischemia; compared to placebo; one-way ANOVA, Dunnett.
The target in a further experiment is T2, apelinR / human Gαi1 (Homo sapiens, UniProt P35414).
T2 sequence (P35414 1-380): T1 sequence (P35414 1-380)
As to the kind of experiment: ebBRET Gαi1 activation. The format is cell-based. The settings on record: HEK293 cells transfected with apelinR, human Gαi1, Rap1GAP-RlucII, rGFP-CAAX; 10 min at 37 °C; mean ± SEM of 5 to 6 independent experiments; read-out: Gαi1 activation log EC50 (converted).

Another experiment addresses T3, apelinR / human Gαi2 (Homo sapiens, UniProt P35414).
T3 sequence (P35414 1-380): T1 sequence (P35414 1-380)
As to the kind of experiment: ebBRET Gαi2 activation. The format is cell-based. The conditions noted are these: HEK293 cells transfected with apelinR, human Gαi2, Rap1GAP-RlucII, rGFP-CAAX; 10 min at 37 °C; mean ± SEM of 5 to 6 independent experiments; read-out: Gαi2 activation log EC50 (converted).

The next experiment addresses T4, apelinR / β-arrestin1 (Homo sapiens, UniProt P35414).
T4 sequence (P35414 1-380): T1 sequence (P35414 1-380)
As to the kind of experiment: ebBRET β-arrestin1 recruitment. The format is cell-based. The conditions noted are these: HEK293 cells transfected with apelinR, β-arrestin1-RlucII, rGFP-CAAX; 10 min at 37 °C; mean ± SEM of 5 to 6 independent experiments; read-out: β-arr1 recruitment log EC50 (converted). (Recruitment of arrestin is a read-out of receptor activation apart from second messengers.)

The next experiment concerns the target T5, apelinR / β-arrestin2 (Homo sapiens, UniProt P35414).
T5 sequence (P35414 1-380): T1 sequence (P35414 1-380)
As to the kind of experiment: ebBRET β-arrestin2 recruitment. The format is cell-based. The settings on record: HEK293 cells transfected with apelinR, β-arrestin2-RlucII, rGFP-CAAX; 10 min at 37 °C; mean ± SEM of 5 to 6 independent experiments; read-out: β-arr2 recruitment log EC50 (converted).

The target in a further experiment is apelinR. Set-up: method as in PMID 33663236. The conditions noted are these: cited from earlier work.
A further experiment deals with rats. The conditions noted are these: cited from earlier work. The text has this: Another avenue being investigated is the use of small molecule as agonists for the apelinR, such as, Bristol Myers Squibb's BMS-986224,[26,27] Amgen's AMG986,[28] and Davenport's CMF-019.[29] […] In contrast, the two non peptidic apelinR agonists, BMS-98622 ...

Description for human apelinR: Graphic is the compilation of n independent experiments performed in duplicate (n from 4 to 6). Error bars represent the SD of 4 to 6 independent experiments.
The reaction was stopped with cold 10 mM Hepes pH 7.5, 1 mM MgCl2 buffer and filtered on Whatman GF/C filters. After washing the filters, radioactivity was measured using a Wallac gamma counter.
APJ receptor agonist IC50 (nM)
Competition binding curves of different apelin receptor ligands. Membranes of CHO cells stably expressing the
concentrations of each ligand (from 1 pM to 10 µM).
in the absence of any unlabeled ligand. Graphic is a compilation of 4 independent experiments performed in duplicate.

For `CCC(CC)n1c(Cc2cccs2)nc2cc(C(=O)N[C@H](CC(=O)O)CC(C)C)ccc21` [CMF-019], the “vasodilation (in words)” value in [1] was “demonstrated vasodilation”.

What is called IC50 is the concentration needed to halve the response being measured. The term EC50 denotes the concentration needed to bring the measured effect to its halfway point. In general, Kd refers to the equilibrium constant for the complex coming apart. For `CCOCc1nc(O)c(-c2nnc(Cc3ccc(Cl)cn3)o2)c(O)c1-c1c(OC)cccc1OC` [BMS-986224, reference compound], on human apelinR, the half-inhibitory concentration (IC50) came to 16.4 ± 5.42 nM. In addition, the “hypotensive effect (BP lowering activity, in words)” value in [2] is on record as “no hypotensive effect”. Further, the “cardioprotective effect / cardiac function recovery after ischemia–reperfusion (LVDP, RPP, max dP/dt, min dP/dt; in words)” value in experiment [3] was “failed to show significance in cardiac function recovery”. Moreover, the half-maximal effective concentration (EC50) was 0.102 nM on apelinR / human Gαi1, 0.11 nM at apelinR / human Gαi2, 10.7 nM at apelinR / β-arrestin1 and 8.91 nM at apelinR / β-arrestin2. Further, the Kd on apelinR was 0.3 nM. In addition, in the experiment on rats (MI rat model, hypertension-induced cardiac dysfunction rat model), the “change in BP in a myocardial infarction (MI) rat model and a hypertension-induced cardiac dysfunction rat model (in words)” value was “do not induce any change in BP”. The “BP in anesthetized normotensive rats (in words)” value in the experiment with rats (anesthetized normotensive rats, at the beginning of the infusion) is “slight but significant decrease in BP”. In the experiment with rats (rat pressure–volume loop model), the “cardiac effects and blood pressure in a rat pressure–volume loop model (in words)” value is “positive cardiac effects without significantly lowering blood pressure”.

Values taken from PMC12715805, “Screening apelin analogues and a small molecule agonist as effective cardiovascular therapeutics against reperfusion injury” (RSC Medicinal Chemistry, 2025).
